Measured values published in patent US12151028B2, “Drug delivery systems comprising solid solutions of weakly basic drugs” (Adare Pharmaceuticals, Inc., priority 2006, dated 2024).
Values after ≈ are worked out from the molar mass of the structure shown. Where a name gives a salt, the structure may show the parent alone. Read-outs that look alike come from different tables or passages of the source.

Experiments:
[1] = Turbidity measurements (transmittance of drug/polymer solutions in pH 6.0 buffer); type: physicochemical; conditions: buffer pH 6.0 containing Kollidon VA 64, Methocel E5, PEG 6000, cyclodextrin or Kollidon 14 PF; drug:polymer 1:2
Description: A concentrated solution (3 mL) of lercanidipine hydrochloride in acetone (0.5 mg/ml) was added to 200 mL of a buffer solution (pH 6.0) containing Kollidon VA 64, Methocel E5 (hypromellose), polyethylene glycol (PEG 6000), cyclodextrin or Kollidon 14 PF (polyvinyl pyrrolidone) at the ratio of 1:2 by weight with respect to the polymer.

[2] = Intrinsic dissolution rate measurements; type: physicochemical; conditions: crystalline polymorphs (Polymorph I, Polymorph II)
Description: Intrinsic dissolution rates were determined for two different polymorphs of lercanidipine hydrochloride as well as amorphous materials (e.g., amorphous drug and 1:2 solid solutions of lercanidipine hydrochloride with Methocel E5 and Kollidon VA 64).

[3] = physchem

**Q.** With `COC(=O)C1=C(C)NC(C)=C(C(=O)OC(C)(C)CN(C)CCC(c2ccccc2)c2ccccc2)C1c1cccc([N+](=O)[O-])c1` (centres unmarked) [lercanidipine hydrochloride] as the compound, how does the “Stability of drug solution against crystallization (turbidity)” value [1] read?
**A.** improved stability

**Q.** What about the “Intrinsic dissolution rate and extent of dissolution” value [2] of the same compound?
**A.** poor dissolution rates

**Q.** With `O=C1CN=C(c2ccccc2Cl)c2cc([N+](=O)[O-])ccc2N1` [Clonazepam, clonazepam] as the compound, how does the solubility ([3]; pH 2.84, aqueous buffer) read?
**A.** 29 µg/mL (≈ 91.9 µM)

**Q.** What about the solubility ([3]; pH 2.92, aqueous buffer) of the same compound?
**A.** 23 µg/mL (≈ 72.9 µM)

**Q.** What about the solubility ([3]; pH 3, aqueous buffer) of the same compound?
**A.** 22 µg/mL (≈ 69.7 µM)

**Q.** What about the solubility ([3]; pH 3.32, aqueous buffer) of the same compound?
**A.** 21 µg/mL (≈ 66.5 µM)

**Q.** And the solubility ([3]; pH 4.21, aqueous buffer)?
**A.** 18 µg/mL (≈ 57 µM)

**Q.** And the solubility ([3]; pH 6.39, aqueous buffer)?
**A.** 18 µg/mL (≈ 57 µM)

**Q.** For `Cc1nccn1CC1CCc2c(c3ccccc3n2C)C1=O` (centres unmarked) [Ondansetron Hydrochloride, ondansetron hydrochloride], which “Solubility of Ondansetron Hydrochloride in Fumaric Acid” value (shortened to “Solubility … in Fumaric Acid”) (fumaric acid 0.25 mg/mL, start pH 2.79, end pH 2.75) is on record?
**A.** 26200 µg/mL

**Q.** And the “Solubility … in Fumaric Acid” value (pH 2.13)?
**A.** 26900 µg/mL

**Q.** What about the “Solubility … in Fumaric Acid” value (pH 3.49) of the same compound?
**A.** about 26 mg/mL
